Data: the NIST ThermoML archive (doi:10.1007/s10765-015-1922-3)
Numbers after ± are expanded uncertainties.

Assays:
[1] = Liquid; for mass density: 298.15 K, 101.33 kPa, Vibrating tube method; for Normal boiling temperature: Ebulliometric method (Recirculating still)
[2] = refractive index (Na D-line) (dimensionless); conditions: 298.15 K; 101.33 kPa; Liquid; Standard Abbe refractometry

mass density [1] | Normal boiling temperature [1] | refractive index [2] | Structure (SMILES)
873.6 ± 0.16 kg/m3 | 80.01 ± 0.2 °C | 1.49692 ± 0.00073 | c1ccccc1 [benzene]
773.7 ± 0.2 kg/m3 | 80.64 ± 0.2 °C | 1.4232 ± 0.00073 | C1CCCCC1 [cyclohexane]
799.51 ± 0.31 kg/m3 | 97.2 ± 0.2 °C | 1.38305 ± 0.00075 | CCCO [propan-1-ol]
